In patent US20080103045A1, “Preparation For Eradicating Algae And Microorganisms In Aqueous Environment” (LIFETECH S.R.O., priority 2005, published 2008):

Assays:
Settings in all cases: effective concentration of copper cations
[1] = system: Synechococcus leopoliensis
Chlorella kessleri = system: Chlorella kessleri
Mycrocystis incerta = system: Mycrocystis incerta
Raphidocelis subcapitata = system: Raphidocelis subcapitata
Anabaena sp. = system: Anabaena sp.
Scenedesmus quadricauda = system: Scenedesmus quadricauda

Question: What does the source list for O=S(=O)([O-])[O-].[Cu+2] [copper sulfate]?
Answer: EC50 (mg/l Cu(II)) [1]: 1.26 mg/l Cu(II); EC50 (mg/l Cu(II)) (Chlorella kessleri): 1.14 mg/l Cu(II); EC50 (mg/l Cu(II)) (Mycrocystis incerta): 1.26 mg/l Cu(II); EC50 (mg/l Cu(II)) (Raphidocelis subcapitata): 1.27 mg/l Cu(II); EC50 (mg/l Cu(II)) (Anabaena sp.): 0.50 mg/l Cu(II); EC50 (mg/l Cu(II)) (Scenedesmus quadricauda): 1.15 mg/l Cu(II)
